4 molecules from US9540356B2 (priority 2012, dated 2017) can be followed below.

The subject of test [1] is retrograde transport of Shiga toxin subunit B (StxB). Format: cell-based.
Test [2] relates to HeLa cells. Format: cell-based, human.
Test [3] has as its system HeLa cells. Description: cells. Conditions: Homo sapiens. The class given is cell-based.

For `CCc1ccc(C2Nc3ccccc3C(=O)N2c2ccccc2)s1` (stereo not drawn) [Compound 7, 2-(5-Ethylthiophen-2-yl)-3-phenyl-2,3-dihydroquinazolin-4(1H)-one], the “retrograde transport, % control” value in test [1] is 13.5%. The “R (Stx), protective index” value in the test on HeLa cells [2] turned out to be 120.

For `O=C1c2ccccc2NC(c2ccc(-c3ccco3)s2)N1c1ccccc1` (stereo not drawn) [Compound 20, 2-(5-(Furan-2-yl)thiophen-2-yl)-3-phenyl-2,3-dihydroquinazolin-4(1H)-one], the “retrograde transport, % control” value in test [1] turned out to be 6.5%. Moreover, the “R (Stx), protective index” value in the test on HeLa cells [2] was 41.

What is called IC50 is the concentration that gives 50% inhibition. Low readings indicate greater potency, high ones weaker potency. In the case of `CN1c2ccccc2C(=O)N(c2ccccc2)C1c1ccc(-c2ccco2)s1` (stereo not drawn) [Compound 40, 2-(5-(Furan-2-yl)thiophen-2-yl)-1-methyl-3-phenyl-2,3-dihydroquinazolin-4(1H)-one], in test [1], the “retrograde transport, % control” value is 5.3%. The molecule also yielded an IC50 with HeLa cells [3] of 1500 nM. For the same molecule, the “R (Stx), protective index” value with HeLa cells [2] is given as 27.

Consider `CCc1ccc(C2N(C)c3ccccc3C(=O)N2c2ccccc2)s1` (stereo not drawn) [Compound 41, 2-(5-Ethylthiophen-2-yl)-1-methyl-3-phenyl-2,3-dihydroquinazolin-4(1H)-one], for which the “retrograde transport, % control” value in test [1] is listed as 0.0%. Also, the “R (Stx), protective index” value with HeLa cells [2] amounted to 173.
